Measured values from publication PMC11432771, “Sphaerococcenol A Derivatives: Design, Synthesis, and Cytotoxicity” (Marine Drugs, 2024).

Columns and labels:
[1] = test system: DU-145 cells; assay: MTT cytotoxicity assay, DU-145 cells; assay type: cell-based; conditions: for SI (DU-145): SI = IC50 of FL83B/IC50 on DU-145; for IC50: Homo sapiens, DU-145, MTT assay, 24 h, 1–100 µM, 95% confidence interval in parentheses
Source text: (§1) Three malignant cell lines (between passages 10 and 25) obtained from the DMSZ-German Collection of Microorganisms and Cell Cultures GmbH biobank were used: A549 (lung carcinoma), DU-145 (prostate carcinoma), and MCF-7 (breast adenocarcinoma). MCF-7 (ACC-115) and DU-145 (ACC-261) cells were maintained in RPMI 1640 medium (Merck, Darmstadt, Germany) supplemented with 10% FBS (fetal bovine serum, Biowest, Riverside, MO, USA) and 1% antimycotic and antibiotic solution (Biowest, Nuaillé, France). A549 (ACC-107) cells were maintained in DMEM:F12 medium (Merck, Darmstadt, Germany) and also supplemented with 10% FBS (Biowest, Riverside, MO, USA) and a 1% solution of antimycotic and antibiotic (Biowest, Nuaillé, France). FL83B hepatocytes (FL83B; ATCC: CLR-2390) were used as the non-malignant cell line. The cells were cultured in F-12K medium supplemented with FBS 10% (Biowest, Riverside, MO, USA) and 1% solution of antimycotic and antibiotic (Biowest, Nuaillé, France).
(§2) The effects of sphaerococcenol A and its analogues (1–6) on the viability of malignant cell lines were studied through three distinct assays, 3-(4,5-dimethylthiazol-2-yl)-2,5-diphenyltetrazolium bromide (MTT), lactate dehydrogenase (LDH) activity, and calcein-AM, targeting different cellular biomarkers. Untreated cells with DMSO (<0.2%) were used as control, and saponin (0.4 mg/mL) (Sigma, Darmstadt, Germany) was used as the positive control for cell death.
(§3) The cells were incubated with compounds at different concentrations (1–100 µM) for 24 h. After the 24 h was over, cells were washed with PBS buffer (pH = 7.4) and incubated for 60 min with the MTT solution (1.2 mM) previously prepared in a fresh medium. The MTT solution was then removed, and 100 µL of dimethyl sulfoxide (DMSO) was added to dissolve the formazan crystals. The results were expressed as the half-maximal inhibitory concentration (IC50) after reading the absorbance at 570 nm using a microplate reader (Synergy H1, BioTek Instruments, USA). The selectivity index (SI) was calculated as the ratio of the IC50 value for a normal cell line to the IC50 value for the corresponding tumor cell line (SI = IC50 of non-malignant cell line/IC50 of malignant cell line), where an SI ≥ 2 of a compound represents a selective toxicity towards malignant cells, while an SI value < 2 is considered generally toxic.
(§4) The data were obtained from at least three independent experiments (n = 3) carried out in triplicate and presented as mean ± standard error of the mean (SEM). The data were checked for normality and homoscedasticity. […] A one-way analysis of variance (ANOVA) with Dunnett′s multiple comparison of group means was employed to determine significant differences to the control treatment and/or a two-way ANOVA with Bonferroni’s test. All other post hoc analyses were conducted using Tukey’s test. The differences were considered significant at a level of 0.05 (p < 0.05). The inhibitory concentrations (IC50) were determined by means of the equation y = 100/(1 + 10(x − logIC50)). All data were analyzed using the software SPSS v28.0.0.0 (SPSS Inc., Chicago, IL, USA) and GraphPad v8.0.2 (GraphPad Software, Inc., La Jolla, CA, USA).

[2] = test system: A549 cells; assay: MTT cytotoxicity assay, A549 cells; assay type: cell-based; conditions: for IC50: MTT assay, 24 h, 1–100 µM, 95% confidence interval in parentheses; for SI (A549): SI = IC50 of FL83B/IC50 on A549
Source text: as §1, §2, §3, §4

[3] = test system: MCF-7 cells; assay: MTT cytotoxicity assay, MCF-7 cells; assay type: cell-based; conditions: for IC50: MTT assay, 24 h, 1–100 µM, 95% confidence interval in parentheses; for SI (MCF-7): SI = IC50 of FL83B/IC50 on MCF-7
Source text: as §1, §2, §3, §4

[4] = test system: FL83B hepatocytes; assay: MTT cytotoxicity assay, non-malignant FL83B hepatocytes; assay type: cell-based; conditions: non-malignant cell line, 24 h, 1–100 µM, 95% confidence interval in parentheses
Source text: Three malignant cell lines (between passages 10 and 25) obtained from the DMSZ-German Collection of Microorganisms and Cell Cultures GmbH biobank were used: A549 (lung carcinoma), DU-145 (prostate carcinoma), and MCF-7 (breast adenocarcinoma). MCF-7 (ACC-115) and DU-145 (ACC-261) cells were maintained in RPMI 1640 medium (Merck, Darmstadt, Germany) supplemented with 10% FBS (fetal bovine serum, Biowest, Riverside, MO, USA) and 1% antimycotic and antibiotic solution (Biowest, Nuaillé, France). A549 (ACC-107) cells were maintained in DMEM:F12 medium (Merck, Darmstadt, Germany) and also supplemented with 10% FBS (Biowest, Riverside, MO, USA) and a 1% solution of antimycotic and antibiotic (Biowest, Nuaillé, France). FL83B hepatocytes (FL83B; ATCC: CLR-2390) were used as the non-malignant cell line. The cells were cultured in F-12K medium supplemented with FBS 10% (Biowest, Riverside, MO, USA) and 1% solution of antimycotic and antibiotic (Biowest, Nuaillé, France). […]
as §3, with “After the 24 h was over, cells were washed with PBS buffer (pH = 7.4) and incubated for 60 min with the MTT solution (1.2 mM) previously prepared in a fresh medium. The MTT solution was then removed, and 100 µL of dimethyl sulfoxide (DMSO) was added to dissolve the formazan crystals.” left out
The data were obtained from at least three independent experiments (n = 3) carried out in triplicate and presented as mean ± standard error of the mean (SEM). […] The inhibitory concentrations (IC50) were determined by means of the equation y = 100/(1 + 10(x − logIC50)). All data were analyzed using the software SPSS v28.0.0.0 (SPSS Inc., Chicago, IL, USA) and GraphPad v8.0.2 (GraphPad Software, Inc., La Jolla, CA, USA).

[5] = test system: A549, DU-145, and MCF-7 malignant cells; assay: MTT cytotoxicity assay, stated across the three malignant cell lines; assay type: cell-based; conditions: SI = IC50 of FL83B/IC50 of malignant cell line; over A549, DU-145, MCF-7
Source text: Three malignant cell lines (between passages 10 and 25) obtained from the DMSZ-German Collection of Microorganisms and Cell Cultures GmbH biobank were used: A549 (lung carcinoma), DU-145 (prostate carcinoma), and MCF-7 (breast adenocarcinoma). MCF-7 (ACC-115) and DU-145 (ACC-261) cells were maintained in RPMI 1640 medium (Merck, Darmstadt, Germany) supplemented with 10% FBS (fetal bovine serum, Biowest, Riverside, MO, USA) and 1% antimycotic and antibiotic solution (Biowest, Nuaillé, France). […]
as §3, with “After the 24 h was over, cells were washed with PBS buffer (pH = 7.4) and incubated for 60 min with the MTT solution (1.2 mM) previously prepared in a fresh medium. The MTT solution was then removed, and 100 µL of dimethyl sulfoxide (DMSO) was added to dissolve the formazan crystals.” left out
The data were obtained from at least three independent experiments (n = 3) carried out in triplicate and presented as mean ± standard error of the mean (SEM). […] The inhibitory concentrations (IC50) were determined by means of the equation y = 100/(1 + 10(x − logIC50)). […]

[6] = test system: MCF-7 cells; design: method as in PMID 35378501; conditions: previous studies; cited from earlier work
[7] = test system: U373 cells; design: method as in PMID 20045651; conditions: inhibiting the cell entry into the mitosis phase; cited from earlier work

Structure (SMILES): CCCSC1CC(=O)[C@@](C)(O)[C@H]2[C@@H]3C=CC[C@@H](C(C)C)[C@@]3(CBr)CC[C@]12C (single isomer, unassigned) [Compound 2]
- SI (DU-145) [1]: 1.9
- IC50 ([2]; Homo sapiens, A549, 24 h): 33.8 µM
- SI (A549) [2]: 1.4
- IC50 [3]: 70.3 µM
- SI (MCF-7) [3]: 0.7

Structure (SMILES): CCCSC1CC(=O)[C@@](C)(O)[C@H]2[C@@H]3C=CC[C@@H](C(C)C)[C@@]3(CBr)CC[C@]12C (single isomer, unassigned) [Compound 3]
- IC50 [4]: 56.7 µM
- SI (DU-145) [1]: 2.8
- IC50 [2]: 22.5 µM
- SI (A549) [2]: 2.5
- IC50 [3]: 14.3 µM
- SI (MCF-7) [3]: 4.0

Structure (SMILES): CC(C)[C@@H]1CC=C[C@H]2[C@@H]3[C@](C)(O)C(=O)CC(SCc4ccccc4)[C@@]3(C)CC[C@]12CBr (stereo partly drawn) [Compound 4, (4S,4aS,4bS,8S,8aS,10aS)-1-(Benzylthio)-8a-(bromomethyl)-4-hydroxy-8-isopropyl-4,10a-dimethyl-1,4,4a,4b,7,8,8a,9,10,10a-decahydrophenanthren-3(2H)-one]
- IC50 [4]: 40.3 µM
- IC50 [1]: 70.1 µM
- SI (DU-145) [1]: 0.6
- IC50 ([2]; Homo sapiens, A549, 24 h): 35.5 µM
- SI (A549) [2]: 1.1
- selectivity index across the malignant cell lines [5]: 0.6–1.3
- SI (MCF-7) [3]: 1.3

Structure (SMILES): CC(C)C1CC=CC2C3C(C)(CCC(O)C3(C)O)CCC21CBr (stereo not drawn) [Compound 5]
- SI (DU-145) [1]: 4.4
- SI (A549) [2]: 3.7
- SI (MCF-7) [3]: 2.6

Structure (SMILES): CC(C)C1CC=CC2C3C(C)(CCC(O)C3(C)O)CCC21CBr (stereo not drawn) [Compound 6]
- SI (DU-145) [1]: 3.1
- SI (A549) [2]: 1.9
- SI (MCF-7) [3]: 2.9

Structure (SMILES): CC(C)[C@@H]1CC=C[C@H]2[C@H]3[C@@](C)(C=CC(=O)[C@@]3(C)O)CC[C@]12CBr [Sphaerococcenol A]
- events accompanying decrease in MCF-7 cell viability [6]: production of hydrogen peroxide, changes in mitochondrial membrane potential, the stimulation of Caspase-9 activity, and nuclear morphology alterations
- IC50 [4]: 37.4 µM
- IC50 [1]: 3.75 µM
- SI (DU-145) [1]: 10.0
- IC50 ([2]; Homo sapiens, A549, 24 h): 15 µM
- SI (A549) [2]: 2.5
- effect on human apoptosis-resistant U373 cells [7]: cytostatic effect
- IC50 ([3]; Homo sapiens, MCF7, 24 h): 6.53 µM
- SI (MCF-7) [3]: 5.7
